# Test results: patent US20120009280A1, “METHOD OF REDUCING THE RATE OF DEGRADATION OF A BIOLOGICAL MATERIAL” (Bio-Energy Ingredients Limited, priority 2009, published 2012)
# Tested on: total micro-organism
# Experiment: Total microbial (plate) count of spent brewer's / wet distiller's grains stored at ambient temperature
# Assay type: cell-based
# Source text: Samples of spent brewer's grains were drawn from the discharge line of a brewery in South Africa. The samples, packed in dry ice in a cold box, were transported over a distance of approximately 40 kilometres to a laboratory. At the laboratory, the samples were thoroughly mixed and initially split into a first portion (Portion 1) and a second portion (Portion 2). The second portion was about twice the size of the first. Portion 1 was left untreated. Material produced from Portion 1 and Portion 2 is designated below using the code “AR” (as received).
# Portion 2 was placed on a clean, standard, laboratory screen deck with 1.4 mm apertures supported from below. As much water as possible was manually squeezed out with a clean flat plastic disc and the sample was then manually remixed after the squeezing. The squeezed material was then split into a third portion (Portion 3) and a fourth portion (Portion 4) of approximately the same size. Material produced from Portion 3 and Portion 4 is designated below using the code “SO” (squeezed).
# Portion 4 was added to a high speed kitchen food-shredder and shredded for about two minutes. The shredded material was then returned to the 1.4 mm aperture screen and squeezed again, as described above, and manually remixed again after the second squeezing to produce a shredded and squeezed portion (Portion 5). Material produced from Portion 5 is designated below using the code “SH” (shredded).
# Samples of Portion 1 (“AR”), Portion 3 (“SO”) and Portion 5 (“SH”) were then delivered to a microbiological testing facility about 15 kilometres from the treatment laboratory. Each was tested for initial total microbial, yeast and mould counts, respectively.
# Separate untreated samples were similarly stored under insect-proof screens at ambient temperature for seven days (as shown in Tables 1 and 2). During the trial period the ambient temperature ranged from 11 to 33 degrees C.
# After exposure to the environment for seven days, all of the samples were tested at a South African National Accreditation System (SANAS) approved microbiological testing facility. Each was tested for total micro-organism, yeast and mould counts to determine the affect of the various treatments.
# Samples of spent brewer's grains were drawn from the discharge line of a brewery in South Africa.
# At the laboratory, the samples were thoroughly mixed and initially split into a first portion (Portion 1) and a second portion (Portion 2). Portion 1 was left untreated. A sample of Portion 1, was delivered immediately to a microbiological testing facility about 15 kilometres away from the treatment laboratory and was tested for initial total microbial, yeast and mould counts, respectively.
# Samples from Portion 2 were subjected to treatment with varying amounts of a powdered, commercially-available calcium oxide containing approximately 94% calcium oxide (CaO) as shown in Table 32. The treatments varied from 2.5 to 10% (w/w) calcium oxide addition. The samples were stored in batches (according to the calcium oxide treatment) under insect-proof screens at ambient temperature for fifty six days. […] During the trial period the ambient temperature ranged from 10 to 30 degrees C. As this period was the southern hemisphere spring/early summer, the humidity as well as ambient temperatures varied widely.
# Samples from each treatment were drawn every seven days. No further calcium oxide treatment or agitation took place after the initial mix. In each case the entire sample was isolated and delivered to the microbiological testing facility.
# (§1) In this trial the same source of wet distiller's grains (again with now partial water removal prior to treatment) was treated.
# as §1
# [1] = dose 5% w/w, distiller's grains not de-watered, Examples 16-18
compound,measurement,setting,value
[O]=[Ca] [calcium oxide],shelf life of fermentation residue,2.5% (w/w) calcium oxide powder added to the fermentation residue,at least 10 days
same,Total plate count,"5% CaO (w/w) powder, week 1",2770 cfu/gram
same,Total plate count,"5% CaO (w/w) powder, week 2",200 cfu/gram
same,Total plate count,"5% CaO (w/w) powder, week 3",4800 cfu/gram
same,Total plate count,"5% CaO (w/w) powder, week 4",10 cfu/gram
same,Total plate count,"5% CaO (w/w) powder, week 5",10 cfu/gram
same,shelf life of fermentation residue,10% (w/w) calcium oxide added to the fermentation residue,at least 63 days
same,effect on micro-organism levels,"calcium oxide 0.5% (w/w), Example 14",only a very limited effect
same,suppressed microbial levels up to day,"calcium oxide 1.0% (w/w), Example 14",8 days
same,preservation effect period,"calcium oxide 2.5% (w/w), Example 9",only the first week
same,preservation effect period,"calcium oxide 5.0% (w/w), Example 9",49 days
same,preservation effect period,"calcium oxide 10% (w/w), Example 9",56 days
same,preservation period,"calcium oxide 10% (w/w), Example 18",9 week
same,total microbial count after treatment,"calcium oxide 10% (w/w), spent brewer's grains, initial count 3,300,000",zero
same,preservation effect period,"calcium oxide levels of 2.0% and 2.5% (w/w), Example 14",10 days
same,microbial counts,"calcium oxide powder 5% and 10% (w/w), end of the 9 week period",<10 to 20 cfu/gram
same,preservation time with total microbial counts <10 cfu/g,[1],≧9 weeks
same,preservation time with total microbial counts <100 cfu/g,[1],≧9 weeks
same,preservation time with total microbial counts <1000 cfu/g,[1],≧9 weeks
same,preservation time with total microbial counts <10 cfu/g,"dose 10% w/w, distiller's grains not de-watered, Examples 16-18",≧9 weeks
same,Total plate count,"wet distiller's grains, 0.5% CaO (w/w), day 1",1.01E+06 cfu/gram
same,Total plate count,"wet distiller's grains, 0.5% CaO (w/w), day 2",680000 cfu/gram
same,Total plate count,"wet distiller's grains, 0.5% CaO (w/w), day 3",35000 cfu/gram
same,Total plate count,"wet distiller's grains, 0.5% CaO (w/w), day 6",5.60E+07 cfu/gram
same,Total plate count,"wet distiller's grains, 0.5% CaO (w/w), day 8",3.30E+06 cfu/gram
same,Total plate count,"wet distiller's grains, 1.0% CaO (w/w), day 1",3.50E+06 cfu/gram
same,Total plate count,"wet distiller's grains, 1.0% CaO (w/w), day 2",3600 cfu/gram
same,Total plate count,"wet distiller's grains, 1.0% CaO (w/w), day 3",720 cfu/gram
same,Total plate count,"wet distiller's grains, 1.0% CaO (w/w), day 6",120 cfu/gram
same,Total plate count,"wet distiller's grains, 1.0% CaO (w/w), day 8",320 cfu/gram
same,Total plate count,"wet distiller's grains, 1.0% CaO (w/w), day 10",4.70E+07 cfu/gram
same,Total plate count,"wet distiller's grains, 1.5% CaO (w/w), day 1",26200 cfu/gram
same,Total plate count,"wet distiller's grains, 1.5% CaO (w/w), day 2",110 cfu/gram
same,Total plate count,"wet distiller's grains, 1.5% CaO (w/w), day 3",40 cfu/gram
same,Total plate count,"wet distiller's grains, 1.5% CaO (w/w), day 6",90 cfu/gram
same,Total plate count,"wet distiller's grains, 1.5% CaO (w/w), day 8",730 cfu/gram
same,Total plate count,"wet distiller's grains, 1.5% CaO (w/w), day 10",70 cfu/gram
same,Total plate count,"wet distiller's grains, 2.0% CaO (w/w), day 1",1090 cfu/gram
same,Total plate count,"wet distiller's grains, 2.0% CaO (w/w), day 2",130 cfu/gram
same,Total plate count,"wet distiller's grains, 2.0% CaO (w/w), day 3",130 cfu/gram
same,Total plate count,"wet distiller's grains, 2.0% CaO (w/w), day 6",340 cfu/gram
same,Total plate count,"wet distiller's grains, 2.0% CaO (w/w), day 8",180 cfu/gram
same,Total plate count,"wet distiller's grains, 2.0% CaO (w/w), day 10",60 cfu/gram
same,Total plate count,"wet distiller's grains, 2.5% CaO (w/w), day 1",5300 cfu/gram
same,Total plate count,"wet distiller's grains, 2.5% CaO (w/w), day 2",60 cfu/gram
same,Total plate count,"wet distiller's grains, 2.5% CaO (w/w), day 3",240 cfu/gram
same,Total plate count,"wet distiller's grains, 2.5% CaO (w/w), day 6",90 cfu/gram
same,Total plate count,"wet distiller's grains, 2.5% CaO (w/w), day 7",10 cfu/gram
same,Total plate count,"wet distiller's grains, 2.5% CaO (w/w), day 8",150 cfu/gram
same,Total plate count,"wet distiller's grains, 2.5% CaO (w/w), day 10",50 cfu/gram
same,Total plate count,"wet distiller's grains, 2.5% CaO (w/w), day 14","74,000 cfu/gram"
same,Total plate count,"wet distiller's grains, 2.5% CaO (w/w), day 21","1,010,000 cfu/gram"
same,Total plate count,"wet distiller's grains, 2.5% CaO (w/w), day 56","6,800,000 cfu/gram"
same,Total plate count,"wet distiller's grains, 5.0% CaO (w/w), day 7",660 cfu/gram
same,Total plate count,"wet distiller's grains, 5.0% CaO (w/w), day 14","82,000 cfu/gram"
same,Total plate count,"wet distiller's grains, 5.0% CaO (w/w), day 21",180 cfu/gram
same,Total plate count,"wet distiller's grains, 5.0% CaO (w/w), day 42",20 cfu/gram
same,Total plate count,"wet distiller's grains, 5.0% CaO (w/w), day 49",50 cfu/gram
same,Total plate count,"wet distiller's grains, 5.0% CaO (w/w), day 56","3,400 cfu/gram"
same,Total plate count,"wet distiller's grains, 10.0% CaO (w/w), day 7",740 cfu/gram
same,Total plate count,"wet distiller's grains, 10.0% CaO (w/w), day 14",150 cfu/gram
same,Total plate count,"wet distiller's grains, 10.0% CaO (w/w), day 21",100 cfu/gram
same,Total plate count,"wet distiller's grains, 10.0% CaO (w/w), day 42",130 cfu/gram
same,Total plate count,"wet distiller's grains, 10.0% CaO (w/w), day 49",80 cfu/gram
same,Total plate count,"wet distiller's grains, 10.0% CaO (w/w), day 56",460 cfu/gram
